Patent US20120093735A1, “COMPLEX COMPOUND AND MRI PROBE MADE OF SAME” (priority 2005, published 2012)

Assays:
Assay type in all cases: physicochemical
[1] = Relaxivity R1 of KMR-K001 depending on abundance of ions; conditions: KCl vs CaCl2, MgCl2, FeCl3; 0.05M Tris/HCl pH 7.4, 0.47 T, 40° C.
Experimental: Solutions of KMR-K001 (1.0 mM) and KCl (0, 0.01, 0.1, 0.3, 0.6, 0.9, 1.2, 1.5, 1.8, 2.4, 3.0, 10, 30. 100 mM) in 0.05M Tris/HCl buffer, pH 7.4, were prepared in an amount of 2 mL, respectively. Each solution was measured for the longitudinal relaxation time T1 three times using NMS 120 Minispec NMR ANALYZER (0.47 T, 40° C., IR pulse). Then each solution was sequentially diluted to attain KMR-K001 concentrations of 0.9 mM and 0.8 mM, respectively, and the longitudinal relaxation time T1 was measured therefor. By taking [KMR-K001] along the abscissa and taking 1/T1 along the ordinate, relaxivity R1 was determined from the slope. Measurements of the longitudinal relaxation time were carried out in the same manner using CaCl2, MgCl2 or FeCl3.

[2] = Relaxivity R1 of KMR-K001 in the presence of zinc ion; conditions: 0.05M Tris/HCl pH 7.4, 0.47 T, 40° C.; gadolinium ion liberated by ligand exchange
[3] = Relaxivity R1 of KMR-Ca001 depending on abundance of ions; conditions: CaCl2 vs NaCl, MgCl2, FeCl3; 0.05M Tris/HCl pH 7.4, 0.47 T, 40° C.
Experimental: (§1) Solutions of KMR-Ca001 (0.6 mM) and CaCl2 (0, 0.01, 0.1, 0.2, 0.3, 0.4, 0.5, 0.6, 0.7, 0.8, 1.0, 1.2, 3.0, 10, 30, 100mM) in 0.05M Tris/HCl buffer, pH 7.4, were prepared in an amount of 2 mL, respectively. Each solution was measured for the longitudinal relaxation time T1 three times using NMS 120 Minispec NMR ANALYZER (0.47 T, 40° C., IR pulse). Then each solution was sequentially diluted to attain […] concentrations of 0.45 mM and 0.35 mM, respectively, and the longitudinal relaxation time T1 was measured therefor in the same manner. By taking [KMR-Ca001] along the abscissa and taking 1/T1 along the ordinate, relaxivity R1 was determined from the slope. Measurements of the longitudinal relaxation time were carried out in the same manner using NaCl, MgCl2 or FeCl3.

[4] = Relaxivity R1 of KMR-Ca001 in the presence of iron ion; conditions: 0.05M Tris/HCl pH 7.4, 0.47 T, 40° C.; iron ion per se has relaxing capability
Experimental: as §1

[5] = T1-weighted images of KMR-Ca001 solutions (1.5T MR scanner); conditions: 0.05M Tris/HCl pH 7.4, 1.5T
Experimental: Water, solutions containing KMR-Ca001 alone at concentrations of 0.1, 0.3, 0.6, 1.0 and 3.0 mM, respectively, and solutions containing 0.3 mM KMR-Ca001 and CaCl2 at concentrations of 0.5, 0.6, 0.8, 1.0, 10.0, 20.0, 50.0, 80.0 mM, respectively, in 0.05M Tris/HCl buffer, pH 7.4, were prepared, and placed in glass tubes, respectively. These glass tubes were stood on agar contained in a Tupperware, and T1-weighted images were obtained by T1-weighted GRE using a 1.5T MR scanner (Signa Horzon LX, produced by GE Yokogawa Medical Systems).
As a result, as KMR-Ca001 increased, the T1-weighted images became whiter, so that it was confirmed that KMR-Ca001 functioned and effective as an MRI contrast agent. The T1-weighted images of the solutions containing 0.3 mM KMR-Ca001 to which calcium ion was added, as the calcium ion increases, coordination of water to gadolinium ion was more inhibited, so that T1-weighted image became darker. By this, it was confirmed that KMR-Ca001 is an MRI contrast agent which responds to calcium ion concentration.

| Substance | ion selectivity of relaxivity R1 response [1] | change of relaxivity in the presence of zinc ion [2] | ion selectivity of relaxivity R1 response [3] | change of relaxivity in the presence of iron ion [4] | T1-weighted image change with increasing calcium ion ([5]; 0.3 mM KMR-Ca001 with CaCl2 0.5-80.0 mM) | T1-weighted image change with increasing probe concentration ([5]; KMR-Ca001 alone 0.1-3.0 mM) |
| --- | --- | --- | --- | --- | --- | --- |
| [bis-(2-{[(2-carboxy-(benzo-15-crown-5)-ethylcarbamoyl)-methyl]-carboxymethyl-amino}-ethyl)-amino]-acetic acid gadolinium complex [KMR-K001] | selectively responds to potassium ion | the relaxivity is sharply increased | – | – | – | – |
| {bis-[2-({[3-(bis-carboxymethyl-amino)-4-methoxy-phenylcarbamoyl]-methyl}-carboxymethyl-amino)-ethyl]-amino}-acetic acid gadolinium complex [KMR-Ca001] | – | – | selectively responds to calcium ion | the relaxivity is sharply increased | became darker | became whiter |
